Assay results as given in patent US8263606B2 (Xenon Pharmaceuticals Inc., priority 2008, dated 2012).

What was measured:
sodium channel = experiment: Guanidine influx assay (14C-guanidine radiotracer flux, in vitro); type: cell-based, human or rat; conditions: guanidine influx assay using a known cell line that expresses a sodium channel
Outline: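 Cells (human/rat Nav, endogenous or recombinant), ~100,000/well, 20-24 h 37 °C/5% CO2. Wash LNHBSS (150 mM choline Cl, HEPES, glucose). Add cpd + aconitine/14C-guanidine mix, RT. Wash, dry, scintillation count. IC50: 4-PL fit; selectivity as IC50 ratio vs reference channel, e.g. Nav1.5.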

[1] = system: inactivated state of the channel of interest (sodium channel); experiment: Electrophysiological assay (whole cell voltage clamp, in vitro); type: cell-based; conditions: affinity for the inactivated state of the channel of interest
Procedure: Cells expressing the channel of interest are cultured in DMEM growth media (Gibco) with 0.5 mg/mL G418, +/−1% PSG, and 10% heat-inactivated fetal bovine serum at 37° C. and 5% CO2. For electrophysiological recordings, cells are plated on 10 mm dishes.
Whole cell recordings are examined by established methods of whole cell voltage clamp (Bean et al., op. cit.) using an Axopatch 200B amplifier and Clampex software (Axon Instruments, Union City, Calif.). All experiments are performed at ambient temperature. Electrodes are fire-polished to resistances of 2-4 Mohms Voltage errors and capacitance artifacts are minimized by series resistance compensation and capacitance compensation, respectively. Data are acquired at 40 kHz and filtered at 5 kHz. The external (bath) solution consists of: NaCl (140 mM), KCl (5 mM), CaCl2 (2 mM), MgCl2 (1 mM), HEPES (10 mM) at pH 7.4. The internal (pipette) solution consists of (in mM): NaCl (5), CaCl2 (0.1), MgCl2 (2), CsCl (10), CsF (120), HEPES (10), EGTA (10), at pH 7.2.
To estimate the steady-state affinity of compounds for the resting and inactivated state of the channel (Kr and Ki, respectively), 12.5 ms test pulses to depolarizing voltages from −60 to +90 mV from a holding potential of −120 m V is used to construct current-voltage relationships (I-V curves). A voltage near the peak of the IV-curve (−30 to 0 m V) is used as the test pulse throughout the remainder of the experiment. Steady-state inactivation (availability) curves are then constructed by measuring the current activated during a 8.75 ms test pulse following 1 second conditioning pulses to potentials ranging from −120 to −10 m V.
The steady-state voltage-dependence of binding of a compound to a sodium channel is determined by measuring the blockage of the ionic current at two holding potentials. Binding to rested-state channels is determined by using a holding potential of −120 mV, so that maximal availability is achieved. Binding to inactivated-state channels is evaluated at a holding potential such that only 10% of the channels are available to open. The membrane potential is held at this voltage for at least 10 seconds so that drug binding can equilibrate.
The apparent dissociation constant at each voltage is calculated with the equation:
[formula] where Kd is the dissociation constant (either Kr or Ki), and [Drug] is the concentration of the test compound.
The Example numbers provided in Table 3 correspond to the Examples herein: […]

CYP3A4 = CYP3A4 (Homo sapiens, UniProt P08684); experiment: Cytochrome P450 (CYP450) Inhibition Assay, CYP3A4 (Vivid fluorescence, BOMCC substrate); conditions: human, P450 Baculosomes (recombinant CYP3A4), probe BOMCC (Vivid substrate)
Sequence of CYP3A4 (P08684 whole entry): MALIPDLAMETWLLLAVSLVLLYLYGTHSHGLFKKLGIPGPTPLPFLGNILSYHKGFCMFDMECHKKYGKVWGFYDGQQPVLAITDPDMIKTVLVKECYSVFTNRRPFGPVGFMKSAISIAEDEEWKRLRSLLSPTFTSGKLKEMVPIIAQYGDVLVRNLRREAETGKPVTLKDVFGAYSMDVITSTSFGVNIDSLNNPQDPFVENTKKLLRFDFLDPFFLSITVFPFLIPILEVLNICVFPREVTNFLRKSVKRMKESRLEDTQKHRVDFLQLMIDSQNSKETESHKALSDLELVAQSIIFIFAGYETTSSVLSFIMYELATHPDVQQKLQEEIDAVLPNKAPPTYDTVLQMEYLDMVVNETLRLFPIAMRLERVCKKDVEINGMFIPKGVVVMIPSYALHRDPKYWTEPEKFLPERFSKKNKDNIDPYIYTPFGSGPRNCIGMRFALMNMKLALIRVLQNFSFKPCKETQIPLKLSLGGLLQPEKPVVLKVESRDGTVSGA

Cc1nc(-c2ccc(CN3C(=O)C4(COc5cc6c(cc54)CCO6)c4ccccc43)cc2)no1 (stereo not drawn) [Example 11.14, 1′-[4-(5-methyl-1,2,4-oxadiazol-3-yl)benzyl]-5,6-dihydrospiro[benzo[1,2-b:5,4-b′]difuran-3,3′-indol]-2′(1′H)-one]
IC50 (sodium channel): 1 to 100 nM
Ki [1]: < 300 nM
melting point: 185 to 186 °C
inhibition at 10 µM (CYP3A4): < 50%

O=C1N(Cc2ccc(C(F)(F)F)o2)c2ccccc2C12COc1cc3c(cc12)OC(F)(F)O3 (stereo not drawn) [Example 2.34, 2,2-difluoro-1′-{[5-(trifluoromethyl)furan-2-yl]methyl}spiro[furo[2,3-f][1,3]benzodioxole-7,3′-indol]-2′(1′H)-one]
IC50 (sodium channel; activity level class): 100 to 1000 nM
Ki [1]: > 300 nM
melting point: 59 to 60 °C
inhibition at 10 µM (CYP3A4): > 50%

O=C1Nc2cccc(-c3cnc4ccccc4c3)c2C12COc1cc3c(cc12)OCCO3 (stereo not drawn) [Example 3.34, 4′-quinolin-3-yl-2,3-dihydrospiro[furo[2,3-g][1,4]benzodioxine-8,3′-indol]-2′(1′H)-one]
IC50 (sodium channel; activity level class): 100 to 1000 nM
Ki [1]: > 300 nM
melting point: 221 to 224 °C
inhibition at 10 µM (CYP3A4): > 50%

O=C1N(Cc2ccncn2)c2ccccc2C12COc1cc3c(cc12)CCO3 (stereo not drawn) [Example 9.6, 1-(pyrimidin-4-ylmethyl)-5,6-dihydrospiro[benzo[1,2-b:5,4-b′]difuran-3,3′-indol]-2′(1′H)-one]
IC50 (sodium channel; activity level class): 1 to 100 nM
Ki [1]: > 300 nM
melting point: 158 to 160 °C
inhibition at 10 µM (CYP3A4): < 50%

O=C1N(C[C@@H]2COCCO2)c2ccccc2[C@]12COc1cc3c(cc12)OCCO3 [Example 8.8, (8S)-1′-[(2R)-1,4-dioxan-2-ylmethyl]-2,3-dihydrospiro[furo[2,3-g][1,4]benzodioxine-8,3′-indol]-2′(1′H)-one]
IC50 (sodium channel; activity level class): 1 to 100 nM
Ki [1]: < 300 nM
melting point: 207 to 210 °C
inhibition at 10 µM (CYP3A4): < 50%

Cc1noc2cc3c(cc12)C1(CO3)C(=O)N(Cc2ccc(C(F)(F)F)o2)c2ccccc21 (stereo not drawn) [Example 9, 3-methyl-1′-{[5-(trifluoromethyl)furan-2-yl]methyl}spiro[furo[3,2-f][1,2]benzisoxazole-5,3′-indol]-2′(1′H)-one]
IC50 (sodium channel; activity level class): 1 to 100 nM
Ki [1]: < 300 nM
melting point: 111 to 112 °C
inhibition at 10 µM (CYP3A4): > 50%

CC(C)CCN1C(=O)C2(COc3cc4c(cc32)OCCO4)c2ccccc21 (stereo not drawn) [Example 4.36, 1′-(3-methylbutyl)-2,3-dihydrospiro[furo[2,3-g][1,4]benzodioxine-8,3′-indol]-2′(1′H)-one]
IC50 (sodium channel; activity level class): 1 to 100 nM
Ki [1]: < 300 nM
melting point: 134 to 137 °C
inhibition at 10 µM (CYP3A4): < 50%

N#Cc1cccc(CN2C(=O)C3(COc4cc5c(cc43)CCO5)c3ccccc32)c1 (stereo not drawn) [Example 4.22, 3-[(2′-oxo-5,6-dihydrospiro[benzo[1,2-b:5,4-b′]difuran-3,3′-indol]-1′(2′H)-yl)methyl]benzonitrile]
IC50 (sodium channel; activity level class): 1 to 100 nM
Ki [1]: > 300 nM
melting point: 187 to 193 °C
inhibition at 10 µM (CYP3A4): > 50%

O=C1N(Cc2ccc(C(F)(F)F)o2)c2ccccc2[C@]12COc1cc3c(cc12)OCCO3 [Example 4.50, (S)-1′-{[5-(trifluoromethyl)furan-2-yl]methyl}-2,3-dihydrospiro[furo[2,3-g][1,4]benzodioxine-8,3′-indol]-2′(1′H)-one]
IC50 (sodium channel; activity level class): 1 to 100 nM
Ki [1]: < 300 nM
melting point: 53 to 56 °C
inhibition at 10 µM (CYP3A4): > 50%

O=C1N(Cc2ccc(C(F)(F)F)o2)c2ccccc2[C@]12COc1cc3c(cc12)CCO3 [Example 5.7, (3S)-1′-{[5-(trifluoromethyl)furan-2-yl]methyl}-5,6-dihydrospiro[benzo[1,2-b:5,4-b′]difuran-3,3′-indol]-2′(1′H)-one]
IC50 (sodium channel; activity level class): 1 to 100 nM
Ki [1]: < 300 nM
melting point: 64 to 65 °C
inhibition at 10 µM (CYP3A4): > 50%

COCCOCCN1C(=O)C2(COc3cc4c(cc32)OCCO4)c2cc3c(cc21)OCCO3 (stereo not drawn) [Example 2.65, 6-[2-(2-methoxyethoxy)ethyl]-2,2′,3,3′-tetrahydrospiro[1,4-dioxino[2,3-f]indole-8,8′-furo[2,3-g][1,4]benzodioxin]-7(6H)-one]
IC50 (sodium channel; activity level class): 1000 to 10000 nM
Ki [1]: > 300 nM
melting point: 146 to 148 °C
inhibition at 10 µM (CYP3A4): < 50%

O=C1N(Cc2ccccn2)c2ccccc2[C@]12COc1cc3c(cc12)OCCO3 [Example 4.51, (S)-1′-(pyridin-2-ylmethyl)-2,3-dihydrospiro[furo[2,3-g][1,4]benzodioxine-8,3′-indol]-2′(1′H)-one]
IC50 (sodium channel; activity level class): 1 to 100 nM
Ki [1]: < 300 nM
melting point: 144 to 146 °C
inhibition at 10 µM (CYP3A4): < 50%

O=C1N(Cc2ccccn2)c2ccccc2C12COc1cc3c(cc12)OCCCO3 (stereo not drawn) [Example 4.55, 1′-(pyridin-2-ylmethyl)-3,4-dihydro-2H-spiro[furo[2,3-h][1,5]benzodioxepine-9,3′-indol]-2′(1′H)-one]
IC50 (sodium channel; activity level class): 100 to 1000 nM
Ki [1]: > 300 nM
melting point: 122 to 123 °C
inhibition at 10 µM (CYP3A4): < 50%

CN(C)C(=O)c1ccc(CN2C(=O)C3(COc4cc5c(cc43)OCCO5)c3ccccc32)o1 (stereo not drawn) [Example 11.33, N,N-dimethyl-5-[(2′-oxo-2,3-dihydrospiro[furo[2,3-g][1,4]benzodioxine-8,3′-indol]-1′(2′H)-yl)methyl]furan-2-carboxamide]
IC50 (sodium channel): 100 to 1000 nM
Ki [1]: < 300 nM
melting point: 224 to 226 °C
inhibition at 10 µM (CYP3A4): > 50%

COc1cc2c(cc1C)C1(CO2)C(=O)Nc2ccccc21 (stereo not drawn) [Example 3, 6-methoxy-5-methylspiro[1-benzofuran-3,3′-indol]-2′(1′H)-one]
IC50 (sodium channel; activity level class): 1000 to 10000 nM
Ki [1]: > 300 nM
melting point: > 250 °C
inhibition at 10 µM (CYP3A4): > 50%

O=C1N(Cc2ccc3nsnc3c2)c2ccccc2C12COc1cc3c(cc12)CCO3 (stereo not drawn) [Example 4.28, 1′-(2,1,3-benzothiadiazol-5-ylmethyl)-5,6-dihydrospiro[benzo[1,2-b:5,4-b′]difuran-3,3′-indol]-2′(1′H)-one]
IC50 (sodium channel; activity level class): 1 to 100 nM
Ki [1]: < 300 nM
melting point: 162 to 164 °C
inhibition at 10 µM (CYP3A4): > 50%

O=C1N(Cc2ccc(C(F)(F)F)o2)c2ccccc2[C@@]12COc1cc3c(cc12)CCO3 [Example 5.5, (3R)-1′-{[5-(trifluoromethyl)furan-2-yl]methyl}-5,6-dihydrospiro[benzo[1,2-b:5,4-b′]difuran-3,3′-indol]-2′(1′H)-one]
IC50 (sodium channel; activity level class): 1000 to 10000 nM
Ki [1]: > 300 nM
melting point: 68 to 70 °C
inhibition at 10 µM (CYP3A4): > 50%

Cc1noc2cc3c(cc12)C1(CO3)C(=O)N(Cc2ccccn2)c2ccccc21 (stereo not drawn) [Example 9.24, 3-methyl-1′-(pyridin-2-ylmethyl)spiro[furo[3,2-f][1,2]benzisoxazole-5,3′-indol]-2′(1′H)-one]
IC50 (sodium channel; activity level class): 1 to 100 nM
Ki [1]: > 300 nM
melting point: 142 to 143 °C
inhibition at 10 µM (CYP3A4): > 50%

O=C1N(CC2COCCO2)c2ccccc2C12COc1cc3c(cc12)OCCO3 (stereo not drawn) [Example 4.45, 1′-(1,4-dioxan-2-ylmethyl)-2,3-dihydrospiro[furo[2,3-g][1,4]benzodioxine-8,3′-indol]-2′(1′H)-one]
IC50 (sodium channel; activity level class): 1 to 100 nM
Ki [1]: > 300 nM
melting point: 160 to 165 °C
inhibition at 10 µM (CYP3A4): < 50%

O=C1N(CC2CCCCO2)c2ccccc2C12COc1cc3c(cc12)OCCO3 (stereo not drawn) [Example 4.38, 1′-(tetrahydro-2H-pyran-2-ylmethyl)-2,3-dihydrospiro[furo[2,3-g][1,4]benzodioxine-8,3′-indol]-2′(1′H)-one]
IC50 (sodium channel; activity level class): 1 to 100 nM
Ki [1]: < 300 nM
melting point: 158 to 166 °C
inhibition at 10 µM (CYP3A4): < 50%

COc1cc2c(cc1C#N)C1(CO2)C(=O)Nc2ccccc21 (stereo not drawn) [Example 3.29, 6-methoxy-2′-oxo-1′,2′-dihydrospiro[1-benzofuran-3,3′-indole]-5-carbonitrile]
IC50 (sodium channel; activity level class): 1000 to 10000 nM
Ki [1]: > 300 nM
melting point: 185 to 186 °C
inhibition at 10 µM (CYP3A4): < 50%
